Earlier results, collected in patent US11559485B2 (NANOCOPOEIA, LLC, priority 2020, dated 2023).
Where a name gives a salt, the structure may show the parent alone.

Details: low/moderate aqueous solubility and low permeability

## Cc1cn(-c2cc(NC(=O)c3ccc(C)c(Nc4nccc(-c5cccnc5)n4)c3)cc(C(F)(F)F)c2)cn1 [Nilotinib monohydrochloride monohydrate]
  BCS class: Class IV
